Values of other authors as cited in patent US20090062268A1, “NOVEL INHIBITORS OF POLY(ADP-RIBOSE)POLYMERASE (PARP)” (LEAD THERAPEUTICS, INC., priority 2007, published 2009).
Read-outs that look alike come from different tables or passages of the source.

Key:
[1] = system: BRCA2-deficient cell line V-C8; details: BRCA2-deficient V-C8 compared with the BRCA2 wild type control
PARP-1 = PARP-1 (Homo sapiens, UniProt P09874); details: Farmer et al., Nature 2005
CAPAN-1 cells = CAPAN-1 cells in DMEM with FCS (20% v/v), glutamine and antibiotics

PARP-1, sequence (P09874 whole entry, species assumed): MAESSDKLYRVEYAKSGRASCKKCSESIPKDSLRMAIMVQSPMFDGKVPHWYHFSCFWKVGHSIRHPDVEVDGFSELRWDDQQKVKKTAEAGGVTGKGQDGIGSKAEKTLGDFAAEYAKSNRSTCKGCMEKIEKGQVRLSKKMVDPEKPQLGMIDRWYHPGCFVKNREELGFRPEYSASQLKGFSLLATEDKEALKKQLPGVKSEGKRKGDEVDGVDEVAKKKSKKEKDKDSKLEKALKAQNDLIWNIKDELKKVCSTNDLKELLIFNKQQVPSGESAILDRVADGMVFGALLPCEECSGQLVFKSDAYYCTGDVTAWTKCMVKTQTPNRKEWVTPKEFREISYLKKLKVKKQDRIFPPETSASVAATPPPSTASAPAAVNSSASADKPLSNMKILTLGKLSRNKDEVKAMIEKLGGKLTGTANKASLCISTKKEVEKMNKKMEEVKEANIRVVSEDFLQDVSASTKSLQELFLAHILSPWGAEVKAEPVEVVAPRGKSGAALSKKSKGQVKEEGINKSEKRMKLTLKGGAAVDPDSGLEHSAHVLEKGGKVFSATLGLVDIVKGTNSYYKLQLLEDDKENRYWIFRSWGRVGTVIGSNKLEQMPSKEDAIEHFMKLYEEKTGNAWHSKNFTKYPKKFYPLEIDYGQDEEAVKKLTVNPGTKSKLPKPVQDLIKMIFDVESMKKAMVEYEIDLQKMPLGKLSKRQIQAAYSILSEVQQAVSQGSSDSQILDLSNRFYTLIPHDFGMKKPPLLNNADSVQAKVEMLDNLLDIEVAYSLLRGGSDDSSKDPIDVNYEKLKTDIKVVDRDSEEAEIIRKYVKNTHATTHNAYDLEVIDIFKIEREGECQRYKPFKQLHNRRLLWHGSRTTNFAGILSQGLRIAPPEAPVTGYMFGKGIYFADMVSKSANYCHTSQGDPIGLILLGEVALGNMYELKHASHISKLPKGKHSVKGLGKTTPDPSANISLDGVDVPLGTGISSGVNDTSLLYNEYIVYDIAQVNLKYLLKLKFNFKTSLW

SMILES | sensitivity in clonogenic survival assay [1] | Ki (PARP-1; PARP-1 inhibitor) | sensitivity to PARP inhibition in clonogenic survival assay (CAPAN-1 cells) | in vivo efficacy, tumor growth (BRCA2-deficient tumors) | Ki (PARP-1; moderately potent PARP-1 inhibitor)
CN(C)Cc1ccc(-c2nc3cccc4c3n2CCNC4=O)cc1 [AG14361] | exhibited sensitivity | 5 nM | – | – | –
O=C1CCC(=O)N1c1cc(Cc2n[nH]c(=O)c3ccccc23)ccc1F [KU0058684] | – | – | showing sensitivity | in vivo efficacy in blocking the growth of BRCA2-deficient tumors | –
Cc1nc2c(O)cccc2c(=O)[nH]1 [NU1025] | exhibited sensitivity | – | – | – | 50 nM
